According to the supplement of paper PMC12698765:
Structures can show the parent of a compound that is named as a salt. ± gives the standard deviation of the averaged measurements.

Tests used:
[1] = system: 409B2 hiPSC (iCRISPR Cas9, FRMD7 editing); assay: cell survival relative to solvent control (fold (ratio to mock)); higher = more surviving cells
Method: (§1)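 Subset screen of 55 drugs tested at 5 concentrations around the effective screening dose, in 409B2 iCRISPR Cas9 hiPSCs editing FRMD7 with a ssDNA donor. Drugs were applied for 24 h. Viability was read by resazurin and editing outcomes by amplicon sequencing (HDR, NHEJ <2 bp microhomology, MMEJ ≥2 bp microhomology). Values are relative to solvent mock controls; two biological replicates.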

[2] = system: 409B2 hiPSC (iCRISPR Cas9, FRMD7 editing); assay: NHEJ-attributed indel frequency relative to solvent control (fold (ratio to mock)); higher = more NHEJ outcomes
Method: as §1

[3] = system: 409B2 hiPSC (iCRISPR Cas9, FRMD7 editing); assay: MMEJ-attributed deletion frequency relative to solvent control (fold (ratio to mock)); higher = more MMEJ outcomes
Method: as §1

[4] = system: 409B2 hiPSC (iCRISPR Cas9, FRMD7 editing); assay: HDR (precise edit) frequency relative to solvent control (fold (ratio to mock)); higher = more homology-directed repair outcomes
Method: as §1

| SMILES | cell survival ([1]; 200 nM) | cell survival ([1]; 500 nM) | NHEJ-attributed indel frequency ([2]; 200 nM) | NHEJ-attributed indel frequency ([2]; 500 nM) | MMEJ-attributed deletion frequency ([3]; 200 nM) | MMEJ-attributed deletion frequency ([3]; 500 nM) | HDR ([4]; 200 nM) | HDR ([4]; 500 nM) | cell survival ([1]; 1000 nM) | cell survival ([1]; 2000 nM) | cell survival ([1]; 5000 nM) | NHEJ-attributed indel frequency ([2]; 1000 nM) | NHEJ-attributed indel frequency ([2]; 2000 nM) | NHEJ-attributed indel frequency ([2]; 5000 nM) | MMEJ-attributed deletion frequency ([3]; 1000 nM) | MMEJ-attributed deletion frequency ([3]; 2000 nM) | MMEJ-attributed deletion frequency ([3]; 5000 nM) | HDR ([4]; 1000 nM) | HDR ([4]; 2000 nM) | HDR ([4]; 5000 nM) | further results |
| --- | --- | --- | --- | --- | --- | --- | --- | --- | --- | --- | --- | --- | --- | --- | --- | --- | --- | --- | --- | --- | --- |
| NS(=O)(=O)c1ccccc1 [Benzenesulfonamide] (in DMSO) | 1.13 | 1.17 | 0.995 ± 0.03 | 0.989 ± 0.029 | 0.912 ± 0.08 | 0.962 ± 0.038 | 1.1 ± 0.048 | 1.06 ± 0.046 | – | – | – | – | – | – | – | – | – | – | – | – | cell survival ([1]; 20 nM): 0.86; cell survival ([1]; 50 nM): 1.22; cell survival ([1]; 100 nM): 1.05; NHEJ-attributed indel frequency ([2]; 20 nM): 0.951 ± 0.029; NHEJ-attributed indel frequency ([2]; 50 nM): 0.974 ± 0.026; NHEJ-attributed indel frequency ([2]; 100 nM): 0.969 ± 0.028; MMEJ-attributed deletion frequency ([3]; 20 nM): 0.855 ± 0.14; MMEJ-attributed deletion frequency ([3]; 50 nM): 0.92339 ± 0.00028; MMEJ-attributed deletion frequency ([3]; 100 nM): 1.05 ± 0.23; HDR ([4]; 20 nM): 1.14 ± 0.063; HDR ([4]; 50 nM): 1.08 ± 0.053; HDR ([4]; 100 nM): 1.02 ± 0.038 |
| CC(C)(c1ccc(O)cc1)c1ccc(O)cc1 [Bisphenol A] (in DMSO) | 1.22 | 1.14 | 1.015 ± 0.0024 | 1.02 ± 0.051 | 0.965 ± 0.066 | 1.01 ± 0.15 | 1.023 ± 0.0052 | 0.983 ± 0.05 | – | – | – | – | – | – | – | – | – | – | – | – | cell survival ([1]; 20 nM): 1.02; cell survival ([1]; 50 nM): 1.14; cell survival ([1]; 100 nM): 0.953; NHEJ-attributed indel frequency ([2]; 20 nM): 1 ± 0.011; NHEJ-attributed indel frequency ([2]; 50 nM): 1.01 ± 0.014; NHEJ-attributed indel frequency ([2]; 100 nM): 1.01 ± 0.045; MMEJ-attributed deletion frequency ([3]; 20 nM): 1.02 ± 0.062; MMEJ-attributed deletion frequency ([3]; 50 nM): 0.8949 ± 0.0088; MMEJ-attributed deletion frequency ([3]; 100 nM): 0.974 ± 0.23; HDR ([4]; 20 nM): 1.025 ± 0.0061; HDR ([4]; 50 nM): 1.01 ± 0.028; HDR ([4]; 100 nM): 1.07 ± 0.025 |
| Nc1c(CC(=O)O)cccc1C(=O)c1ccc(Br)cc1 [Bromfenac Sodium] (in DMSO) | 1.06 | 1.2 | 0.984 ± 0.026 | 0.957 ± 0.032 | 0.866 ± 0.12 | 0.944 ± 0.072 | 1.09 ± 0.065 | 1.09 ± 0.07 | 0.983 | 1.04 | 1.09 | 0.984 ± 0.016 | 1.02 ± 0.022 | 0.975 ± 0.044 | 0.811 ± 0.094 | 0.89 ± 0.033 | 0.976 ± 0.09 | 1.11 ± 0.058 | 1.05 ± 0.025 | 1.11 ± 0.053 | – |
| N=C(NCCCCCCNC(=N)NC(=N)Nc1ccc(Cl)cc1)NC(=N)Nc1ccc(Cl)cc1 [Chlorhexidine HCl] (in DMSO) | 1.04 | 1.24 | 0.973 ± 0.014 | 0.995 ± 0.021 | 0.966 ± 0.067 | 0.8989 ± 0.0017 | 1.06 ± 0.051 | 1.09 ± 0.038 | 1.02 | 1.03 | 0.0831 | 0.997 ± 0.011 | 1.05 ± 0.043 | 0.6546 ± 0.0051 | 0.994 ± 0.067 | 1.07 ± 0.082 | 0.946 ± 0.12 | 1 ± 0.044 | 0.874 ± 0.023 | 0.294 ± 0.063 | – |
| Nc1ccn(C[C@@H](CO)OCP(=O)(O)O)c(=O)n1 [Cidofovir] (in H2O) | – | – | – | – | – | – | – | – | – | 0.624 | 0.548 | – | 0.843 ± 0.058 | 0.835 ± 0.019 | – | 0.789 ± 0.08 | 0.881 ± 0.029 | – | 1.06 ± 0.083 | 0.9 ± 0.055 | cell survival ([1]; 10000 nM): 0.333; cell survival ([1]; 20000 nM): 0.167; cell survival ([1]; 50000 nM): 0.863; NHEJ-attributed indel frequency ([2]; 10000 nM): 0.862 ± 0.049; NHEJ-attributed indel frequency ([2]; 20000 nM): 0.736 ± 0.051; NHEJ-attributed indel frequency ([2]; 50000 nM): 0.988; MMEJ-attributed deletion frequency ([3]; 10000 nM): 0.924 ± 0.35; MMEJ-attributed deletion frequency ([3]; 20000 nM): 0.727 ± 0.12; MMEJ-attributed deletion frequency ([3]; 50000 nM): 0.968; HDR ([4]; 10000 nM): 0.85 ± 0.081; HDR ([4]; 20000 nM): 0.574 ± 0.012; HDR ([4]; 50000 nM): 1.01 |
| CC(C)/N=c1\cc2n(-c3ccc(Cl)cc3)c3ccccc3nc-2cc1Nc1ccc(Cl)cc1 [Clofazimine] (in DMSO) | 0.955 | 1.06 | 1.01 ± 0.022 | 1.027 ± 0.004 | 1.07 ± 0.15 | 0.967 ± 0.077 | 0.942 ± 0.032 | 0.91 ± 0.019 | 0.752 | 0.597 | 0.252 | 0.999 ± 0.017 | 1.028 ± 0.0037 | 0.974 ± 0.014 | 0.949 ± 0.022 | 0.957 ± 0.097 | 0.791 ± 0.14 | 0.912 ± 0.042 | 0.794 ± 0.029 | 0.772 ± 0.058 | – |
